Measurements taken from patent US4323567A, “Arylmalonamido-1-oxadethiacephalosporins” (priority 1976, dated 1982).
Where two headings read alike, the source gives them in different places.

Experiments:
Test in all cases: Minimal inhibitory concentration, nutrient agar plate
E. coli 73 = format: cell-based, Escherichia coli; details: Escherichia coli, 73, inoculum size 10^8, pH 7.0, read-out: Minimal inhibitory concentration
E. coli JC-2 = format: cell-based; details: Escherichia coli, JC2, inoculum size 10^8, pH 7.0, read-out: Minimal inhibitory concentration
Enterobacter cloacae 233 = format: cell-based; details: Enterobacter cloacae, 233, inoculum size 10^8, pH 7.0, read-out: Minimal inhibitory concentration
P. vulgaris CN-329 = format: cell-based; details: Proteus vulgaris, CN329, inoculum size 10^8, pH 7.0, read-out: Minimal inhibitory concentration
Klebsiella sp. 363 = format: cell-based; details: inoculum size 10^8, pH 7.0, read-out: Minimal inhibitory concentration
P. morganii No. 9 = format: cell-based, Proteus morganii; details: Morganella morganii, NO.9, inoculum size 10^8, pH 7.0, read-out: Minimal inhibitory concentration
Klebsiella pneumoniae = format: cell-based; details: inoculum size 10^8, pH 7.0, read-out: Minimal inhibitory concentration
E. coli 377 = format: cell-based, Escherichia coli; details: Escherichia coli, 377, inoculum size 10^8, pH 7.0, read-out: Minimal inhibitory concentration
Escherichia coli H = format: cell-based; details: inoculum size 10^8, pH 7.0, read-out: Minimal inhibitory concentration
[1] = system: Pseudomonas aeruginosa Denken; format: cell-based; details: inoculum size 10^8, pH 7.0, read-out: Minimal inhibitory concentration
[2] = system: Serratia marsescens 13880; format: cell-based; details: Serratia, 13880, inoculum size 10^8, pH 7.0, read-out: Minimal inhibitory concentration
P. vulgaris No. 3 = format: cell-based; details: Proteus vulgaris, NO.3, inoculum size 10^8, pH 7.0, read-out: Minimal inhibitory concentration
Ps. aeruginosa 24 = format: cell-based, Pseudomonas aeruginosa; details: Pseudomonas aeruginosa, 24, inoculum size 10^8, pH 7.0, read-out: Minimal inhibitory concentration
Ps. aeruginosa 25619 = format: cell-based, Pseudomonas aeruginosa; details: Pseudomonas aeruginosa, 25619, inoculum size 10^8, pH 7.0, read-out: Minimal inhibitory concentration
Proteus mirabilis PR-4 = format: cell-based; details: inoculum size 10^8, pH 7.0, read-out: Minimal inhibitory concentration
[3] = ester, in the presence of 5% horse serum, sodium salt
[4] = SP.363, ester, in the presence of 5% horse serum, sodium salt
[5] = PR4, ester, in the presence of 5% horse serum, sodium salt

Row | SMILES | MIC (E. coli 73; as sodium salt) [µg/mL] | MIC (E. coli JC-2; as sodium salt) [µg/mL] | MIC (Enterobacter cloacae 233; as sodium salt) [µg/mL] | MIC (P. vulgaris CN-329; as sodium salt) [µg/mL] | MIC (Klebsiella sp. 363; SP.363, as sodium salt) [µg/mL] | MIC (P. morganii No. 9; as sodium salt) [µg/mL] | MIC (Klebsiella pneumoniae; as sodium salt) [µg/mL] | MIC (E. coli 377; as sodium salt) [µg/mL] | MIC (Escherichia coli H; as sodium salt) [µg/mL] | MIC ([1]; as sodium salt) [µg/mL] | MIC ([2]; as sodium salt) [µg/mL] | MIC (P. vulgaris No. 3; as sodium salt) [µg/mL] | MIC (Ps. aeruginosa 24; as sodium salt) [µg/mL] | MIC (Ps. aeruginosa 25619; as sodium salt) [µg/mL] | MIC (Proteus mirabilis PR-4; PR4, as sodium salt) [µg/mL] | other results
1 | CC(=O)OCC1=C(C(=O)O)N2C(=O)[C@@H](NC(=O)Cc3cccs3)[C@H]2SC1 [Cefalotin, reference compound] | > 100 | 12.5 | > 100 | > 100 | > 100 | > 100 | 1.6 | > 100 | 3.2 | > 100 | > 100 | > 100 | > 100 | > 100 | 3.2 | 
2 | Cc1nnc(SCC2=C(C(=O)O)N3C(=O)[C@@H](NC(=O)Cn4cnnn4)[C@H]3SC2)s1 [Cefazolin, reference compound] | > 100 | 3.2 | > 100 | > 100 | > 100 | > 100 | 3.2 | 100 | 1.6 | > 100 | > 100 | > 100 | > 100 | > 100 | 6.2 | 
3 | Cn1nnnc1SCC1=C(C(=O)O)N2C(=O)[C@@H](NC(=O)C(C(=O)O)c3ccc(O)cc3)[C@H]2OC1 (stereo partly drawn) [Example III-6, 7β-(α-p-hydroxyphenyl-α-carboxyacetamido)-3-(1-methyltetrazol-5-yl)thiomethyl-1-oxadethia-3-cephem-4-carboxylic acid] | > 100 | 0.39 | 0.78 | > 100 | > 100 | 0.78 | 0.78 | 0.39 | 0.2 | > 100 | 0.78 | > 100 | > 100 | 6.25 | 0.78 | 
4 | CO[C@@]1(NC(=O)C(C(=O)O)c2ccc(OC(N)=O)cc2)C(=O)N2C(C(=O)O)=C(CSc3nnnn3C)CO[C@@H]21 (stereo partly drawn) [Example III-25, 7β-(α-p-carbamoyloxyphenyl-α-carboxyacetamido)-7α-methoxy-3-(1-methyltetrazol-5-yl)thiomethyl-1-oxadethia-3-cephem-4-carboxylic acid] | 1.56 | 0.39 | 0.78 | 0.2 | 0.39 | 0.2 | 0.39 | 0.78 | 0.1 | > 100 | 1.56 | 0.39 | 100 | 25 | 0.2 | 
5 | CO[C@@]1(NC(=O)C(C(=O)O)c2ccccc2)C(=O)N2C(C(=O)O)=C(CSc3nnnn3C)CO[C@@H]21 (stereo partly drawn) [III-13, 7β-(α-carboxy-α-phenylacetamido)-7α-methoxy-3-(1-methyltetrazol-5-yl)thiomethyl-1-oxadethia-3-cephem-4-carboxylic acid] | 0.39 | 0.01 | 0.2 | 0.1 | 0.05 | 0.1 | 0.1 | 0.2 | 0.025 | 100 | 0.39 | 0.2 | 50 | 12.5 | 0.2 | 
6 | CO[C@@]1(NC(=O)C(C(=O)O)c2ccc(OC(C)=O)cc2)C(=O)N2C(C(=O)O)=C(CSc3nnnn3C)CO[C@@H]21 (stereo partly drawn) [III-14, 7β-(α-carboxy-α-p-acetoxyphenylacetamido)-7α-methoxy-3-(1-methyltetrazol-5-yl)thiomethyl-1-oxadethia-3-cephem-4-carboxylic acid] | 1.56 | 0.39 | 0.78 | 0.2 | 0.78 | 0.39 | 0.39 | 1.56 | 0.2 | > 100 |  | 0.39 | 100 | 25 | 0.2 | 
7 | CO[C@@]1(NC(=O)C(C(=O)O)c2ccc(O)cc2)C(=O)N2C(C(=O)O)=C(CSc3nnnn3C)CO[C@@H]21 (stereo partly drawn) [III-15, 7β-(α-carboxy-α-p-hydroxyphenylacetamido)-7α-methoxy-3-(1-methyltetrazol-5-yl)thiomethyl-1-oxadethia-3-cephem-4-carboxylic acid] | 0.78 | 0.02 |  | 0.39 | 0.1 | 0.39 | 0.2 | 0.39 | 0.1 | 100 | 1.56 | 0.39 | 50 | 6.25 | 0.39 | 
8 | CO[C@@]1(NC(=O)C(C(=O)Oc2ccc3c(c2)CCC3)c2ccc(O)cc2)C(=O)N2C(C(=O)O)=C(CSc3nnnn3C)CO[C@@H]21 (stereo partly drawn) [III-16, 7β-[α-P-hydroxyphenyl-α-(5-indanyl)oxycarvonylacetamido]-7β-methoxy-3-(1-methyltetrazol-5-yl)thiomethyl-1-oxadethia-3-cephem-4-carboxylic acid] |  |  |  |  |  |  |  |  |  |  |  |  |  |  |  | MIC (E. coli 73; [3]): 0.78 µg/mL; MIC (E. coli JC-2; [3]): 0.02 µg/mL; MIC (Enterobacter cloacae 233; [3]): 0.39 µg/mL; MIC (P. vulgaris CN-329; [3]): 0.78 µg/mL; MIC (Klebsiella sp. 363; [4]): 0.2 µg/mL; MIC (P. morganii No. 9; [3]): 0.2 µg/mL; MIC (Klebsiella pneumoniae; [3]): 0.2 µg/mL; MIC (E. coli 377; [3]): 0.2 µg/mL; MIC (Escherichia coli H; [3]): 0.1 µg/mL; MIC [1, 3]: 100 µg/mL; MIC [2, 3]: 0.39 µg/mL; MIC (P. vulgaris No. 3; [3]): 0.39 µg/mL; MIC (Ps. aeruginosa 24; [3]): 25 µg/mL; MIC (Ps. aeruginosa 25619; [3]): 12.5 µg/mL; MIC (Proteus mirabilis PR-4; [5]): 0.39 µg/mL
9 | CO[C@@]1(NC(=O)C(C(=O)O)c2ccsc2)C(=O)N2C(C(=O)O)=C(CSc3nnnn3C)CO[C@@H]21 (stereo partly drawn) [III-19, 7β-[α-(3-thienyl)-α-carboxyacetamido]-7α-methoxy-3-(1-methyltetrazol-5-yl)thiomethyl-1-oxadethia-3-cephem-4-carboxylic acid] | 0.2 | 0.05 | 0.1 | 0.1 | 0.05 | 0.1 | 0.2 | 0.1 | 0.025 | 100 | 0.39 | 0.2 | 50 | 12.5 | 0.2 | 
10 | CO[C@@]1(NC(=O)C(C(=O)O)c2cccs2)C(=O)N2C(C(=O)O)=C(CSc3nnnn3C)CO[C@@H]21 (stereo partly drawn) [III-23, 7β-[α-carboxy-α-(2-theinyl)acetamido]-7α-methoxy-3-(1-methyltetrazol-5-yl)thiomethyl-1-oxadethia-3-cephem-4-carboxylic acid] | 0.2 | 0.05 | 0.2 | 0.1 | 0.1 | 0.1 | 0.05 | 0.39 | 0.025 | 100 | 0.39 |  | 50 | 12.5 | 0.1 | 
11 | CO[C@@]1(NC(=O)C(C(=O)Oc2ccc3c(c2)CCC3)c2ccccc2)C(=O)N2C(C(=O)O)=C(CSc3nnnn3C)CO[C@@H]21 (stereo partly drawn) [III-24, 7β-[α-(indan-5-yl)oxycarbonyl-α-phenylacetamido]-7α-methoxy-3-(1-methyltetrazol-5-yl)thiomethyl-1-oxadethia-3-cephem-4-carboxylic acid] |  |  |  |  |  |  |  |  |  |  |  |  |  |  |  | MIC (E. coli 73; [3]): 0.39 µg/mL; MIC (E. coli JC-2; [3]): 0.01 µg/mL; MIC (Enterobacter cloacae 233; [3]): 0.2 µg/mL; MIC (P. vulgaris CN-329; [3]): 0.1 µg/mL; MIC (Klebsiella sp. 363; [4]): 0.05 µg/mL; MIC (P. morganii No. 9; [3]): 0.2 µg/mL; MIC (Klebsiella pneumoniae; [3]): 0.1 µg/mL; MIC (E. coli 377; [3]): 0.78 µg/mL; MIC (Escherichia coli H; [3]): 0.025 µg/mL; MIC [1, 3]: 100 µg/mL; MIC [2, 3]: 0.78 µg/mL; MIC (P. vulgaris No. 3; [3]): 0.39 µg/mL; MIC (Ps. aeruginosa 24; [3]): 50 µg/mL; MIC (Ps. aeruginosa 25619; [3]): 12.5 µg/mL; MIC (Proteus mirabilis PR-4; [5]): 0.1 µg/mL
